Source: patent US20080103205A1, “Pesticidal compositions and methods of use” (priority 2006, published 2008)

Key:
[1] = test system: European corn borer (Ostrinia nubilalis); test: Diet surface test on European corn borer larvae (2nd instar); type: in vivo; details: for No. dead: 10 larvae
Procedure: Concentrations of 6.25, 12.5, 25, or 50 ppm AT blocker were prepared in 95% ethyl alcohol (EtOH). 95% EtOH alone served as control. European corn borer (ECB) diet prepared from the powdered diet supplied by French Agricultural Research, Inc. Diet (1-2 ml) was poured into small cups and allowed to cool to room temperature. Test solution (100 ul) was placed onto the diet surface and allowed to evaporate the solvent. Each concentration of chemical had 2 sets of 10 cups each. One late 2nd instar larva was placed in each cup and covered with lid having perforations for aeration. Cups were placed in an incubator for 7 days at 25±1° C. and 70±5% RH. After seven days, the weight of each larva was taken and any mortality was recorded. Then, the surviving larvae were transferred to fresh diet cups holding sufficient diet (5-6 ml) without chemicals and incubated at 25±1° C. and 70±5% RH until pupation. Weights of larvae were taken 14 days after transferring to fresh diet (21 days after start of treatment). Finally, the number of days until pupation was recorded.
Anion transporters caused larval death and a reduction in weight gain within 7 days exposure. The effect persisted for 2 weeks time on untreated diet, but total time to pupation was relatively unaffected.

[2] = test system: Meloidogyne incognita eggs; test: M. incognita egg hatching; type: in vivo
Procedure: Meloidogyne incognita (plant parasitic nematode) eggs were collected from tomato plant roots and were suspended in water. The solution was either diluted or concentrated to adjust the egg load to about 5000/ml. AT stock solutions prepared in DMSO and 300 ul of test solution was placed in a well, along with 20 ul of aqueous solution containing eggs. The number of eggs in 20 ul solution ranged from 115 to 143 (n=10). Each treatment (2, 5, 10, 20, or 40 ppm) was replicated 5 times. Microplates were sealed with Parafilm™ and incubated at room temperature. Similar tests conducted with 0.2% DMSO alone served as controls. Egg hatching was monitored at 24, 72, 120, and 168 hr after incubation. Both moving and non-moving nematodes were counted to arrive at the number of eggs hatched. Proportion of egg hatch was calculated as the number of juveniles divided by total number of eggs.
VSCC blockers effect on M. incognita egg hatching is shown in the following tables where % hatched is rounded to the nearest percentage point and where “% C*” is % hatch, normalized to control.

For `O=C(O)c1c2ccccc2cc2ccccc12` [9-AC, anthracene-9-carboxylic acid], the No. dead ([1]; 6.25 ppm, 7 days after feeding) was 0, the No. dead ([1]; 6.25 ppm, 21 days after feeding) was 0 and the No. dead ([1]; 12.5 ppm, 7 days after feeding) was 0. The No. dead ([1]; 12.5 ppm, 21 days after feeding) was 0, the Days for pupation ([1]; 25 ppm) was 26.0 days and the No. dead ([1]; 25 ppm, 7 days after feeding) was 0. For the same compound, the mortality at 6.25 ppm ([1]; Ostrinia nubilalis, 168 h, 6.25 ppm, 7 days after feeding) was 0%, the mortality at 12.5 ppm ([1]; Ostrinia nubilalis, 168 h, 12.5 ppm, 7 days after feeding) was 0% and the mortality at 25 ppm ([1]; Ostrinia nubilalis, 168 h, 25 ppm, 7 days after feeding) was 0%. It also gave a mortality at 6.25 ppm ([1]; Ostrinia nubilalis, 504 h, 6.25 ppm, 21 days after feeding) of 0%, a mortality at 12.5 ppm ([1]; Ostrinia nubilalis, 504 h, 12.5 ppm, 21 days after feeding) of 0% and a mortality at 50 ppm ([1]; Ostrinia nubilalis, 504 h, 50 ppm, 21 days after feeding) of 60%. The “Eggs Hatched %” value ([2]; 2 ppm, 24 hr) was 10%, the “Eggs Hatched % C* (% hatch, normalized to control)” value ([2]; 2 ppm, 24 hr) was 100% and the “Eggs Hatched No.” value ([2]; 2 ppm, 24 hr) was 65. For the same compound, the “Eggs Hatched %” value ([2]; 2 ppm, 72 hr) was 15%, the “Eggs Hatched % C* (% hatch, normalized to control)” value ([2]; 2 ppm, 72 hr) was 94% and the “Eggs Hatched No.” value ([2]; 2 ppm, 72 hr) was 101. The “Eggs Hatched %” value ([2]; 2 ppm, 120 hr) was 20%, the “Eggs Hatched % C* (% hatch, normalized to control)” value ([2]; 2 ppm, 120 hr) was 91% and the “Eggs Hatched No.” value ([2]; 2 ppm, 120 hr) was 134. The “Eggs Hatched %” value ([2]; 2 ppm, 168 hr) was 25%, the “Eggs Hatched % C* (% hatch, normalized to control)” value ([2]; 2 ppm, 168 hr) was 91% and the “Eggs Hatched No.” value ([2]; 2 ppm, 168 hr) was 167. The “Eggs Hatched %” value ([2]; 5 ppm, 24 hr) was 9%, the “Eggs Hatched % C* (% hatch, normalized to control)” value ([2]; 5 ppm, 24 hr) was 90% and the “Eggs Hatched No.” value ([2]; 5 ppm, 24 hr) was 67. For the same compound, the “Eggs Hatched %” value ([2]; 5 ppm, 72 hr) was 14%, the “Eggs Hatched % C* (% hatch, normalized to control)” value ([2]; 5 ppm, 72 hr) was 87% and the “Eggs Hatched No.” value ([2]; 5 ppm, 72 hr) was 98. For the same compound, the “Eggs Hatched %” value ([2]; 5 ppm, 120 hr) was 18%, the “Eggs Hatched % C* (% hatch, normalized to control)” value ([2]; 5 ppm, 120 hr) was 82% and the “Eggs Hatched No.” value ([2]; 5 ppm, 120 hr) was 129. The “Eggs Hatched %” value ([2]; 5 ppm, 168 hr) was 22%, the “Eggs Hatched % C* (% hatch, normalized to control)” value ([2]; 5 ppm, 168 hr) was 79% and the “Eggs Hatched No.” value ([2]; 5 ppm, 168 hr) was 155. The “Eggs Hatched %” value ([2]; 10 ppm, 24 hr) was 9%, the “Eggs Hatched % C* (% hatch, normalized to control)” value ([2]; 10 ppm, 24 hr) was 90% and the “Eggs Hatched No.” value ([2]; 10 ppm, 24 hr) was 62. The “Eggs Hatched %” value ([2]; 10 ppm, 72 hr) was 13%, the “Eggs Hatched % C* (% hatch, normalized to control)” value ([2]; 10 ppm, 72 hr) was 81% and the “Eggs Hatched No.” value ([2]; 10 ppm, 72 hr) was 90. For the same compound, the “Eggs Hatched %” value ([2]; 10 ppm, 120 hr) was 17%, the “Eggs Hatched % C* (% hatch, normalized to control)” value ([2]; 10 ppm, 120 hr) was 77% and the “Eggs Hatched No.” value ([2]; 10 ppm, 120 hr) was 118. The “Eggs Hatched %” value ([2]; 10 ppm, 168 hr) was 20%, the “Eggs Hatched % C* (% hatch, normalized to control)” value ([2]; 10 ppm, 168 hr) was 71% and the “Eggs Hatched No.” value ([2]; 10 ppm, 168 hr) was 141. For the same compound, the “Eggs Hatched %” value ([2]; 20 ppm, 24 hr) was 9%, the “Eggs Hatched % C* (% hatch, normalized to control)” value ([2]; 20 ppm, 24 hr) was 90% and the “Eggs Hatched No.” value ([2]; 20 ppm, 24 hr) was 59. The “Eggs Hatched %” value ([2]; 20 ppm, 72 hr) was 12%, the “Eggs Hatched % C* (% hatch, normalized to control)” value ([2]; 20 ppm, 72 hr) was 75% and the “Eggs Hatched No.” value ([2]; 20 ppm, 72 hr) was 80. For the same compound, the “Eggs Hatched %” value ([2]; 20 ppm, 120 hr) was 15%, the “Eggs Hatched % C* (% hatch, normalized to control)” value ([2]; 20 ppm, 120 hr) was 68% and the “Eggs Hatched No.” value ([2]; 20 ppm, 120 hr) was 102. For the same compound, the “Eggs Hatched %” value ([2]; 20 ppm, 168 hr) was 18%, the “Eggs Hatched % C* (% hatch, normalized to control)” value ([2]; 20 ppm, 168 hr) was 64% and the “Eggs Hatched No.” value ([2]; 20 ppm, 168 hr) was 122. For the same compound, the “Eggs Hatched %” value ([2]; 40 ppm, 24 hr) was 9%, the “Eggs Hatched % C* (% hatch, normalized to control)” value ([2]; 40 ppm, 24 hr) was 90% and the “Eggs Hatched No.” value ([2]; 40 ppm, 24 hr) was 60. The “Eggs Hatched %” value ([2]; 40 ppm, 72 hr) was 12%, the “Eggs Hatched % C* (% hatch, normalized to control)” value ([2]; 40 ppm, 72 hr) was 75% and the “Eggs Hatched No.” value ([2]; 40 ppm, 72 hr) was 76. For the same compound, the “Eggs Hatched %” value ([2]; 40 ppm, 120 hr) was 14%, the “Eggs Hatched % C* (% hatch, normalized to control)” value ([2]; 40 ppm, 120 hr) was 64% and the “Eggs Hatched No.” value ([2]; 40 ppm, 120 hr) was 94. For the same compound, the “Eggs Hatched %” value ([2]; 40 ppm, 168 hr) was 15%, the “Eggs Hatched % C* (% hatch, normalized to control)” value ([2]; 40 ppm, 168 hr) was 54% and the “Eggs Hatched No.” value ([2]; 40 ppm, 168 hr) was 103.
